According to US20250127778A1, “CANCER IMMUNOTHERAPY COMPOSITION CONTAINING INTERACTION INHIBITOR OF STING AND TRIM29 AS ACTIVE INGREDIENT” (SPARK BIOPHARMA, INC, priority 2021, published 2025):

Key:
[1] = test system: primary tumor and secondary tumor; assay: Primary and secondary tumor model for anticancer immune system construction; format: in vivo, mouse; settings: FIG. 30
Excerpt: It was verified whether, under the treatment of cGAMP and the compound of Formula 1 in combination, in addition to the results of increasing the antigen presentation efficacy that were confirmed in FIGS. 18 to 21, the anticancer immune system was constructed throughout the organism also in the animal model, so that activated cytotoxic T cells were able to remove cancer cells in other locations to which drugs are not injected.

STING [2] = target: T1, STING (Mus musculus, UniProt Q3TBT3); assay: Flow cytometry of intracellular STING in Raw264.7 cells; format: cell-based; design: endogenous in cells; host or cells: Raw264.7; settings: 24 hours, FIG. 15
T1 sequence (Q3TBT3 1-378): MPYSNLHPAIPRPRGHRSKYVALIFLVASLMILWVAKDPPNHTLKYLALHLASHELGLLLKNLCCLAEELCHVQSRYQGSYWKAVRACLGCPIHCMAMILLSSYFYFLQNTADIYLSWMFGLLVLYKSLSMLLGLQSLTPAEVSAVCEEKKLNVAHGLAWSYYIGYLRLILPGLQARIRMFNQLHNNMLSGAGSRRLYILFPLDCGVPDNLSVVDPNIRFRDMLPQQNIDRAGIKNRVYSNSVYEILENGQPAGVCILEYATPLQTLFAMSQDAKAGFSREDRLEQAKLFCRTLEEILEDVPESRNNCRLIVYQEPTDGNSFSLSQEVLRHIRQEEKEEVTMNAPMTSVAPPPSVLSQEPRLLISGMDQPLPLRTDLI
Protocol: It was verified whether the oxopiperazine derivatives increased the efficacy of STING agonists and other cancer immunotherapy, including immune checkpoint inhibitors. First, it was verified through flow cytometry and Western blotting whether the oxopiperazine derivatives increase the amount of STING.
To measure the intracellular amount of STING through flow cytometry, Raw264.7 cells were seeded in a transparent 6-well plate and cultured for one day. Thereafter, the cells were treated with a solution, in which the compound of Formula 1 is diluted in a culture medium without FBS, and cultured for 24 hours. […] After centrifugation of the collected cells, the supernatant was removed, the cells were redistributed in FACS solution (Hank's balanced salt solution (HBSS) including 2% horse serum and 0.05% NaN3), and the number of cells was measured. […] Finally, the Triton solution was added, centrifugation was performed, the supernatant was removed, the cells were redistributed into 200 μL of the Triton solution and analyzed by using a FACSCalibur instrument from BD Bioscience, and the results were quantitatively analyzed by using the FlowJo program from Tree Star, Inc.

STING [3] = target: T1, STING; assay: STING expression level in immune cells inside tumor by flow cytometry; format: in vivo; settings: compound alone, FIG. 28
Protocol: As described above, after euthanasia with carbon dioxide, the tumor was extracted, TIL was separated, and intracellular STING staining was performed in the same manner as in <Example 6>.

[4] = combination with cGAMP compared with single administration of cGAMP

## COc1ccc(CC2=CN(c3ccc(C(=O)NC[C@H]4CCCO4)cc3[N+](=O)[O-])[C@H](C(C)C)C(=O)N2Cc2ccc(O)cc2)cc1 [Formula 1, 4-((R)-4-(4-hydroxybenzyl)-2-isopropyl-5-(4-methoxybenzyl)-3-oxo-3,4-dihydropyrazin-1 (2H)-yl)-3-nitro-N-(((R)-tetrahydrofuran-2-yl)methyl)benzamide]
[1]; [4]
  final tumor mass of primary tumor: reduced
  primary tumor growth: inhibited
[1]; secondary tumor not directly injected
  tumor death in secondary carcinomas: tumor death also effectively occurred
STING [2]
  fluorescence labeling intensity of intracellular STING: increased in a concentration-dependent manner
STING [3]; tumor extracted one day after final treatment
  amount of STING in tumor-associated macrophages (TAM) and dendritic cells (DC): increased
STING [3]
  effect of increasing STING in M1 compared to M2 macrophages: more noticeably exhibited in M1 macrophages
